Source: ChEMBL document CHEMBL2401721, “BACE1 inhibitors: a head group scan on a series of amides” (Bioorg Med Chem Lett, 2013)

Experiments:
[1] = Dissociation constant, pKa of the compound by capillary electrophoresis; assay type: physicochemical
[2] = Plasma concentration in wild-type C57Bl/6J mouse at 30 mg/kg, po after 4 hrs; assay type: ADME, organism-based; set-up: dose 30 mg/kg, route oral
[3] = Drug uptake in wild-type C57Bl/6J mouse brain at 30 mg/kg, po after 4 hrs; assay type: ADME, organism-based; set-up: dose 30 mg/kg, route oral; settings: read-out: Drug uptake
[4] = Ratio of drug level in brain to plasma in wild-type C57Bl/6J mouse at 30 mg/kg, po after 4 hrs; assay type: ADME, organism-based; set-up: dose 30 mg/kg, route oral; settings: read-out: BPR

## C[C@]1(c2cccc(NC(=O)c3ccc(Cl)cn3)c2)N=C(N)c2ccccc21
[1]
  pKa: 9.7

## CC1(c2cccc(NC(=O)c3ccccn3)c2)CSC(N)=N1 (centres undefined)
[1]
  pKa: 8.3

## NC1=NC2(CCc3ccc(NC(=O)c4ccc(Cl)cn4)cc32)CS1 (centres undefined)
[1]
  pKa: 8.3

## C[C@@]1(c2cccc(NC(=O)c3ccc(Cl)cn3)c2)COC(N)=N1
[1]
  pKa: 8.3

## CN1CC[C@@](C)(c2cc(NC(=O)c3ccc(Cl)cn3)ccc2F)N=C1N
[1]
  pKa: > 11
[2]
  concentration at 4 h: < 3 ng/mL
[3]
  concentration at 4 h: < 13 ng/g

## NC1=NC2(CCc3ccc(NC(=O)c4ccc(Cl)cn4)cc32)CO1 (centres undefined)
[1]
  pKa: 8.3

## C[C@@]1(c2cc(NC(=O)c3ccc(Cl)cn3)ccc2F)CCC2(CC2)C(N)=N1
[4]
  Kp at 4 h: 0.1
[1]
  pKa: > 11
[2]
  concentration at 4 h: 81 ng/mL
[3]
  concentration at 4 h: 8 ng/g

## CN1C(=O)C(C)(c2cccc(NC(=O)c3ccc(Cl)cn3)c2)N=C1N (centres undefined)
[1]
  pKa: 7.3

## C[C@@]1(c2cc(NC(=O)c3ccc(Cl)cn3)ccc2F)CCCOC(N)=N1
[1]
  pKa: 10.4
